Experimental data from publication PMC6583964, “Identification and functional characterization of D-fructose receptor in an egg parasitoid, Trichogramma chilonis” (PLoS ONE, 2019).

Key:
TchiGR43a [1] = biological target: T1, TchiGR43a (Trichogramma chilonis, UniProt A0A481RL18); assay: two-electrode voltage-clamp of Xenopus oocytes expressing TchiGR43a, single concentration […] (weaker response than D-fructose); format: cell-based
T1 construct: full-length open reading frame (549 amino acid residues), expressed in Xenopus laevis oocytes
T1 sequence (A0A481RL18 1-549): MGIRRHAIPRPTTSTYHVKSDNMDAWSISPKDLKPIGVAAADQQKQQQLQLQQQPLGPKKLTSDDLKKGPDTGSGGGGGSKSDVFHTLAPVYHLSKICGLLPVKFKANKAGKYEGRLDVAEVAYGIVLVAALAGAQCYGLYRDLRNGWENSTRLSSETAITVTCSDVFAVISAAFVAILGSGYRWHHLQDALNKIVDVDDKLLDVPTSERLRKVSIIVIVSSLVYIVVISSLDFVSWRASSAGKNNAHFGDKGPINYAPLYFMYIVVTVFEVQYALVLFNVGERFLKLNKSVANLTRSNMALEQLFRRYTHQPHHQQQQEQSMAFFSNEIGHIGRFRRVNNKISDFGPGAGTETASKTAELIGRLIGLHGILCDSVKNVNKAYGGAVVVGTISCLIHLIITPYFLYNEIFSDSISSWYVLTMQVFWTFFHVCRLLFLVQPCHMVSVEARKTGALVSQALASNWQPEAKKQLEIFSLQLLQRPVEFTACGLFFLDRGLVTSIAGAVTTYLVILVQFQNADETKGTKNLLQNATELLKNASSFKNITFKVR

TchiGR43a [2] = biological target: T1, TchiGR43a; assay: two-electrode voltage-clamp of Xenopus oocytes expressing TchiGR43a, dose-response; format: cell-based

## O[C@H]1[C@H](O)[C@@H](O)[C@H](O)[C@@H](O)[C@H]1O [myo-inositol]
TchiGR43a [1]
  two-electrode voltage-clamp of Xenopus oocytes expressing TchiGR43a, single conc: the oocytes expressing TchiGR43a showed responses to D-fructose and myo-inositol

## O=C(CO)[C@@H](O)[C@H](O)[C@H](O)CO [D-fructose]
TchiGR43a [2]
  EC50: 23 mM
